Laboratory results as given in US20220380341A1, “INHIBITORS OF HIV-1 NEF FOR THE TREATMENT OF HIV DISEASE” (priority 2018, published 2022).
Read-outs that look alike come from different tables or passages of the source.

Legend:
[1] = target: HIV-1 NefNL4-3 (Human immunodeficiency virus type 1 group M subtype B, UniProt P03406, A33V/T15A/T51N/V11I); assay: Surface plasmon resonance binding to recombinant full-length Nef (NL4-3); settings: for Nef NL4-3 Binding, SPR 1:1 or 2-site fitting KD1: 1:1 Langmuir fit where the KD2 cell says '1 to 1 fitting', else 2-site fit
[2] = test system: TZM-bl cell line; type: cell-based; settings: for % Cell Viability: 1.0 μM, uninfected TZM-bl, CellTiter-Blue, Table 4
Procedure: (§1) In particular, the tables show antiretroviral activity as percent inhibition of HIV-1 infectivity at 1 μM. In brief, this assay uses the TZM-bl reporter cell line, which carries a stable copy of the HIV-1 LTR coupled to luciferase. Cells are infected with HIV-1NL4-3 in the presence and absence of each compound, and luciferase activity is measured 48 h later. This assay measures early events in the HIV-1 life cycle, including viral entry, reverse transcription, nuclear entry and integration, and viral transcription. All assays include control cells infected with Nef-defective HIV-1, which replicates at 30-50% of wild-type in this system. Results are normalized to percent inhibition relative to DMSO-treated control cells infected with wild-type HIV-1 (0% inhibition) and DMSO-treated cells infected with Nef-defective HIV-1 (100% of the Nef-dependent effect)—see column 3. In addition, cell viability is measured in the TZM-bl cell line in the presence of each test compound and in the absence of HIV-1 infection, using the Cell Titer Blue cell viability assay (Promega; column 4).

[3] = test system: HIV-1NL4-3; assay: HIV-1 infectivity assay in TZM-bl reporter cell line (LTR-luciferase, 48 h); type: cell-based; settings: Human immunodeficiency virus 1, TZM-bl, 48 h, Table 1; TZM-bl cells, 1 μM, 48 h; 100% = Nef-defective HIV-1; read-out: HIV-1 Infectivity % Inhibition Norm. to Δ-Nef @ 1 μM
Procedure: as §1

[4] = Nef NL4-3 Binding, SPR 1:1 or 2-site fitting KD2, Table 1, 2-site fit, second component
[5] = read-out: Nef NL4-3 Binding, SPR 1:1 or 2-site fitting KD2, Table 1, 2-site fit, second component
[6] = Table 1, 2-step induced-fit model, read-out: Nef NL4-3 Binding, SPR 2-state fitting KD
[7] = read-out: Nef NL4-3 Binding, SPR 1:1 or 2-site fitting KD1
[8] = Table 2, uninfected TZM-bl cells, 1 μM, Cell Titer Blue

Oc1c(CCc2ccc(F)cc2)c(-c2cnccn2)nn1-c1nc2ccccc2[nH]1 [Compound I-103, 1-(1H-1,3-benzodiazol-2-yl)-4-[2-(4-fluorophenyl)ethyl]-3-(pyrazin-2-yl)-1H-pyrazol-5-ol]
Kd [1, 4]: 25.4 µM

Cc1ccc(-c2nn(-c3nc4ccccc4[nH]3)c(O)c2CCc2ccc(F)cc2)cc1 [Compound I-104, 1-(1H-1,3-benzodiazol-2-yl)-4-[2-(4-fluorophenyl)ethyl]-3-(4-methylphenyl)-1H-pyrazol-5-ol]
Kd [1]: 2.37 µM | Kd [1, 4]: 2.26 µM

Oc1c(CCc2ccc(F)cc2)c(-c2ccccn2)nn1-c1nc2ccccc2[nH]1 [Compound I-109, 1-(1H-1,3-benzodiazol-2-yl)-4-[2-(4-fluorophenyl)ethyl]-3-(pyridin-2-yl)-1H-pyrazol-5-ol]
Kd [1]: 0.0362 µM

Oc1c(CCc2ccc(F)c(F)c2)c(-c2cnccn2)nn1-c1nc2ccccc2[nH]1 [Compound I-111, 1-(1H-1,3-benzodiazol-2-yl)-4-[2-(3,4-difluorophenyl)ethyl]-3-(pyrazin-2-yl)-1H-pyrazol-5-ol]
Nef NL4-3 Binding, SPR 1:1 or 2-site fitting KD1 ([1]; Table 1): No Interaction

Oc1c(CCc2ccc(F)c(Cl)c2)c(-c2cnccn2)nn1-c1nc2ccccc2[nH]1 [Compound I-112, 1-(1H-1,3-benzodiazol-2-yl)-4-[2-(3-chloro-4-fluorophenyl)ethyl]-3-(pyrazin-2-yl)-1H-pyrazol-5-ol]
Nef NL4-3 Binding, SPR 1:1 or 2-site fitting KD1 ([1]; Table 1): No Interaction

Oc1c(CCc2ccc(F)cc2)c(-c2ccncc2)nn1-c1nc2ccccc2[nH]1 [Compound I-113, 1-(1H-1,3-benzodiazol-2-yl)-4-[2-(4-fluorophenyl)ethyl]-3-(pyridin-4-yl)-1H-pyrazol-5-ol]
Kd [1]: 3.35 µM

C=CCc1c(-c2ccc(C(F)(F)F)cc2)nn(-c2nc3ccccc3[nH]2)c1O [Compound I-115, 1-(1H-1,3-benzodiazol-2-yl)-4-(prop-2-en-1-yl)-3-[4-(trifluoromethyl)phenyl]-1H-pyrazol-5-ol]
Kd [1]: 0.687 µM | Kd [1, 5]: 5.7 µM

Oc1c(CCc2ccc(F)cc2)c(-c2cccc(Cl)c2)nn1-c1nc2ccccc2[nH]1 [Compound I-116, 1-(1H-1,3-benzodiazol-2-yl)-3-(3-chlorophenyl)-4-[2-(4-fluorophenyl)ethyl]-1H-pyrazol-5-ol]
Kd [1]: 2.01 µM

Oc1c(CCc2ccc(F)cc2)c(-c2ccccc2Cl)nn1-c1nc2ccccc2[nH]1 [Compound I-117, 1-(1H-1,3-benzodiazol-2-yl)-3-(2-chlorophenyl)-4-[2-(4-fluorophenyl)ethyl]-1H-pyrazol-5-ol]
Kd [1]: 1.71 µM | Kd [1, 5]: 24.7 µM

Oc1c(CCc2ccc(F)cc2)c(CCCc2ccc(F)cc2)nn1-c1nc2ccccc2[nH]1 [Compound I-120, 1-(1H-1,3-benzodiazol-2-yl)-4-[2-(4-fluorophenyl)ethyl]-3-[3-(4-fluorophenyl)propyl]-1H-pyrazol-5-ol]
Percent Viability @ 1 μM (TZM-bl cells) ([2]; human, 1 μM): 89.1% | inhibition at 1 µM [3]: 70.1%

O=C(OCc1ccccc1)N1CCC(c2nn(-c3nc4ccccc4[nH]3)c(O)c2Cc2ccc(F)c(F)c2)CC1 [Compound I-159, benzyl 4-[1-(1H-1,3-benzodiazol-2-yl)-4-[(3,4-difluorophenyl)methyl]-5-hydroxy-1H-pyrazol-3-yl]piperidine-1-carboxylate]
Kd [1]: 0.384 µM

CC(C)(C)OC(=O)N1CCC(c2nn(-c3nc4ccccc4[nH]3)c(O)c2Cc2ccc(F)c(F)c2)CC1 [Compound I-203, tert-butyl 4-[1-(1H-1,3-benzodiazol-2-yl)-4-[(3,4-difluorophenyl)methyl]-5-hydroxy-1H-pyrazol-3-yl]piperidine-1-carboxylate]
Kd [1]: 0.821 µM | Kd [1, 5]: 45.4 µM

Oc1c(CCc2ccc(F)cc2)c(C2CCCNC2)nn1-c1nc2ccccc2[nH]1 (stereo not shown) [Compound I-502, 1-(1H-1,3-benzodiazol-2-yl)-4-[2-(4-fluorophenyl)ethyl]-3-(piperidin-3-yl)-1H-pyrazol-5-ol]
Kd [1, 6]: 4.51 µM | Kd [1, 7]: 2.45 µM

Oc1c(CCc2ccc(F)cc2)c(C2CCNCC2)nn1-c1nc2ccccc2[nH]1 [Compound I-551, 1-(1H-1,3-benzodiazol-2-yl)-4-[2-(4-fluorophenyl)ethyl]-3-(piperidin-4-yl)-1H-pyrazol-5-ol]
Nef NL4-3 Binding, SPR 1:1 or 2-site fitting KD1 ([1]; Table 1): No Interaction

CC(C)(C)OC(=O)N1CCC(CCc2c(-c3cccc(S(C)(=O)=O)c3)nn(-c3cc(C(F)(F)F)n[nH]3)c2O)CC1 [Compound I-605]
% Cell Viability [2]: 100% | Percent Viability @ 1 μM (TZM-bl cells) [2, 8]: 106.0%

CS(=O)(=O)c1ccc(-c2nn(-c3cc(C4CC4)n[nH]3)c(O)c2CCC2CCOCC2)cc1 [Compound I-607]
Percent Viability @ 1 μM (TZM-bl cells) [2]: 100.0%

CCOC(=O)c1ccc(CCc2c(-c3ccccc3)nn(-c3cc(C(F)(F)F)n[nH]3)c2O)cc1 [Compound I-612]
% Cell Viability [2]: 100% | Percent Viability @ 1 μM (TZM-bl cells) [2, 8]: 100.7%

Oc1c(CCc2ccncc2)c(-c2ccc(F)cc2)nn1-c1cc(C(F)(F)F)n[nH]1 [Compound I-620]
Percent Viability @ 1 μM (TZM-bl cells) [2]: 100.0%

CC(=O)N1CCC(c2nn(-c3nc4ccccc4[nH]3)c(O)c2CCc2ccc(F)cc2)CC1 [Compound I-741, 1-{4-[1-(1H-1,3-benzodiazol-2-yl)-4-[2-(4-fluorophenyl)ethyl]-5-hydroxy-1H-pyrazol-3-yl]piperidin-1-yl}ethan-1-one]
Kd [1]: 3.26 µM | Kd [1, 5]: 10.6 µM

CS(=O)(=O)N1CCC(c2nn(-c3nc4ccccc4[nH]3)c(O)c2CCc2ccc(F)cc2)CC1 [Compound I-743, 1-(1H-1,3-benzodiazol-2-yl)-4-[2-(4-fluorophenyl)ethyl]-3-(1-methanesulfonylpiperidin-4-yl)-1H-pyrazol-5-ol]
Nef NL4-3 Binding, SPR 1:1 or 2-site fitting KD1 ([1]; Table 1): No Interaction

CC(C)(C)OC(=O)N1CCCC(c2nn(-c3nc4ccccc4[nH]3)c(O)c2CCc2ccc(F)cc2)C1 (stereo not shown) [Compound I-755, tert-butyl 3-[1-(1H-1,3-benzodiazol-2-yl)-4-[2-(4-fluorophenyl)ethyl]-5-hydroxy-1H-pyrazol-3-yl]piperidine-1-carboxylate]
Kd [1, 6]: 0.296 µM | Kd [1, 7]: 0.0527 µM

CN1CCC(c2nn(-c3nc4ccccc4[nH]3)c(O)c2CCc2ccc(F)cc2)CC1 [Compound I-801, 1-(1H-1,3-benzodiazol-2-yl)-4-[2-(4-fluorophenyl)ethyl]-3-(1-methylpiperidin-4-yl)-1H-pyrazol-5-ol]
Nef NL4-3 Binding, SPR 1:1 or 2-site fitting KD1 ([1]; Table 1): No Interaction

Oc1c(CCc2ccc(F)cc2)c(C2CCN(c3ncccn3)CC2)nn1-c1nc2ccccc2[nH]1 [Compound I-903, 1-(1H-1,3-benzodiazol-2-yl)-4-[2-(4-fluorophenyl)ethyl]-3-[1-(pyrimidin-2-yl)piperidin-4-yl]-1H-pyrazol-5-ol]
Kd [1, 7]: 9.98 µM

Oc1c(Cc2ccc(F)c(F)c2)c(C2CCN(CC(F)(F)F)CC2)nn1-c1nc2ccccc2[nH]1 [Compound I-1001, 1-(1H-1,3-benzodiazol-2-yl)-4-[(3,4-difluorophenyl)methyl]-3-[1-(2,2,2-trifluoroethyl)piperidin-4-yl]-1H-pyrazol-5-ol]
Kd ([1]; Table 1, 2-site fit, second component, read-out: Nef NL4-3 Binding, SPR 1:1 or 2-site fitting KD2): 0.5 µM | Kd [1, 7]: 0.257 µM

Fc1ccc(-c2c(CCc3ccccc3)cnn2-c2cc(C(F)(F)F)n[nH]2)cc1 [Compound I-1501]
% Cell Viability [2]: 97.9%

Fc1ccc(-c2nn(-c3cc(C(F)(F)F)n[nH]3)cc2CCc2ccccc2)cc1 [Compound I-1501]
Percent Viability @ 1 μM (TZM-bl cells) [2, 8]: 102.5%
